Measured values: ChEMBL document CHEMBL4715804, “A Fluorescence Polarization Biophysical Assay for the Naegleria DNA Hydroxylase Tet1” (ACS Med Chem Lett, 2016)
Active and inactive are the calls of the source. The rule behind the calls is not given here.

Tests used:
[1] = Binding affinity to Naegleria Tet1 assessed as dissociation constant incubated for 4 hrs and measured upto 20 hrs by fluorescence polarization assay
Naegleria = assay: (§1) Displacement of sodium 5-(3-(8-(3-carboxy-N-hydroxyacrylamido)octyl)thioureido)-2-(6-hydroxy-3-oxo-3H-xanthen-9-yl)benzoate from Naegleria Tet-1 at 5 mM incubated for 20 mins followed by sodium 5-(3-(8-(3-carboxy-N-hydroxyacrylamido)octyl)thioureido)-2-(6-hydroxy-3-oxo-3H-xanthen-9-yl)benzoate addition and further incubated 4 hrs and measured upto 20 hrs by competition fluorescence polarization assay; conditions: time hrs <=20
[2] = as §1, with “Tet-1” for “Tet-1 at 5 mM”

Kd [1]	inhibition (Naegleria)	IC50 [2]	Ki [2]	Compound
0.25 µM	–	–	–	O=C(O)/C=C/C(=O)N(O)CCCCCCCCNC(=S)Nc1ccc(-c2c3ccc(=O)cc-3oc3cc(O)ccc23)c(C(=O)O)c1
–	inactive	–	–	Nc1nc(=O)n([C@H]2C[C@H](O)[C@@H](CO)O2)cc1CO
–	inactive	–	–	Cc1cn([C@H]2C[C@H](O)[C@@H](CO)O2)c(=O)nc1N
–	–	27 µM	9 µM	O=C(O)c1ccnc(C(=O)O)c1
–	–	5200 µM	1700 µM	O=C(O)CC[C@@H](O)C(=O)O
–	–	250 µM	83 µM	O=C(O)CCC(=O)C(=O)O [ALPHA-KETOGLUTARIC ACID]
–	–	49 µM	16 µM	O=C(O)CNC(=O)C(=O)O [N-OXALYLGLYCINE]
